Laboratory results taken from patent US8513251B2, “Pyridazinone compounds” (Takeda Pharmaceutical Company Limited, priority 2009, dated 2013).
pIC50: −log10 of the molar value.

Key:
Human PDE10A enzyme = target: T1, Human PDE10A enzyme (Homo sapiens, UniProt Q9Y233); assay: PDE enzyme inhibition, SPA (Scintillation Proximity Assay); format: biochemical; conditions: Table 1; for inhibition at 1 µM: compound at 1 μM, read-out: Percent inhibition (1 μM); for pIC50: human PDE10A, [3H]cGMP substrate
T1 construct: Human PDE10A enzyme was generated from Sf9 or COS-7 cells transfected with the full-length gene; His-tag; made in house; host or cells: Sf9 or COS-7 cells
Description: Human PDE10A enzyme was generated from Sf9 or COS-7 cells transfected with the full-length gene. Cloned enzyme was extracted from homogenized cell pellets. The extracted enzyme from Sf9 cells was partially purified using His-tag affinity column. The enzyme was stored at −70° C. until use. PDE activity was measured using a SPA (Scintillation Proximity Assay) (GE Healthcare). To evaluate the inhibitory activity, 10 μL of serial diluted compounds were incubated with 20 μL of PDE enzyme in assay buffer (50 mM HEPES-NaOH, 8.3 mM MgCl2, 1.7 mM EGTA, 0.1% BSA (pH 7.4)) for 30 min. at room temperature. Final concentration of DMSO in the assay was 1 percent as compounds were tested in duplicate in 96-well half-area plates (Corning). To start the reaction, 10 μL of substrate [3H] cGMP (25 or 50 nM; enclosed in SPA kits from GE Healthcare or purchased from PerkinElmer, respectively) was added for a final assay volume of 40 μL. After 60 min incubation at room temperature, yttrium SPA beads containing Zinc sulphate were added (20 μL at 6 mg/mL) to terminate the PDE reaction. After being settled for 60 min., assay plates were counted in a scintillation counter (PerkinElmer) to allow calculation of inhibition rate and IC50. Inhibition rate was calculated on the basis of 0% control wells with DMSO and 100% control wells without enzyme.

T1 sequence (Q9Y233 267-1055): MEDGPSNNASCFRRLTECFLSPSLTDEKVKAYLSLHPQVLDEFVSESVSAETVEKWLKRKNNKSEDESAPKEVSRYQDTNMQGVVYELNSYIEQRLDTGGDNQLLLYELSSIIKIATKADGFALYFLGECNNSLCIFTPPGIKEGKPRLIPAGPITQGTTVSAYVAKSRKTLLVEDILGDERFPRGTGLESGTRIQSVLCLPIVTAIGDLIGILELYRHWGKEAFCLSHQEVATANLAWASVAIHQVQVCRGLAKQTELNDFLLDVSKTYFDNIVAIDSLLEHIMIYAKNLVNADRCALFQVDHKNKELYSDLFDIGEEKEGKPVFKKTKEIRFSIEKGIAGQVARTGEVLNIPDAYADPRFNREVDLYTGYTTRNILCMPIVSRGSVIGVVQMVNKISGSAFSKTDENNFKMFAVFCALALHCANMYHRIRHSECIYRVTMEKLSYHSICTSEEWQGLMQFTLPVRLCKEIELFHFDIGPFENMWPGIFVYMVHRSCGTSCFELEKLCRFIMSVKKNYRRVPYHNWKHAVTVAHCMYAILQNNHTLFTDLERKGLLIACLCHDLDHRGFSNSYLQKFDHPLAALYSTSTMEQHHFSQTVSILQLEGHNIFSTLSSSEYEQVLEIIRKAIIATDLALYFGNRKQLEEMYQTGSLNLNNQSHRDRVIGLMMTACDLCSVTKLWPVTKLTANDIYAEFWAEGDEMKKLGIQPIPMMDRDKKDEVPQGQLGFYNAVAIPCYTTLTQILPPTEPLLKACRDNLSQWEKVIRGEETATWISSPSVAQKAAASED

| SMILES | melting point | inhibition at 1 µM (Human PDE10A enzyme) | pIC50 (Human PDE10A enzyme) | inhibition at 0.1 µM (Human PDE10A enzyme; compound at 0.1 μM as noted in cell, read-out: Percent inhibition (at 0.1 μM)) |
| --- | --- | --- | --- | --- |
| O=c1ccn(-c2cccc(C(F)(F)F)c2)nc1-c1ccnn1-c1ccccc1 [Example 10, 3-(1-Phenyl-1H-pyrazol-5-yl)-1-[3-(trifluoromethyl)phenyl]pyridazin-4(1H)-one] | 156 to 157 °C | 98% | 6.70 to 8.00 | – |
| COc1ccccc1-n1ccc(=O)c(-c2ccnn2-c2ccccc2)n1 [Example 13, 1-(2-Methoxyphenyl)-3-(1-phenyl-1H-pyrazol-5-yl)pyridazin-4(1H)-one] | 153 to 154 °C | 96% | 6.70 to 8.00 | – |
| O=c1ccn(-c2cccc(F)c2)nc1-c1ccnn1-c1ccccc1 [Example 15, 1-(3-Fluorophenyl)-3-(1-phenyl-1H-pyrazol-5-yl)pyridazin-4(1H)-one] | 170 to 171 °C | 97% | 6.70 to 8.00 | – |
| O=c1ccn(-c2ccc(N3CCOCC3)cc2)nc1-c1ccnn1-c1ccccc1 [Example 23, 1-(4-Morpholin-4-ylphenyl)-3-(1-phenyl-1H-pyrazol-5-yl)pyridazin-4(1H)-one] | 205 to 206 °C | 102% | > 8.00 | – |
| O=c1ccn(-c2cccnc2)nc1-c1ccnn1-c1ccccc1 [Example 30, 3-(1-Phenyl-1H-pyrazol-5-yl)-1-pyridin-3-ylpyridazin-4(1H)-one] | 176 to 177 °C | – | 6.70 to 8.00 | 87% |
| O=c1ccn(-c2ccccc2Cl)nc1-c1ccnn1-c1ccccc1 [Example 32, 1-(2-Chlorophenyl)-3-(1-phenyl-1H-pyrazol-5-yl)pyridazin-4(1H)-one] | 138 to 139 °C | 89% | 6.70 to 8.00 | – |
| Cn1cc(-c2nn(-c3cccc(C(F)(F)F)c3)ccc2=O)c(-c2ccccc2)n1 [Example 76, 3-(1-Methyl-3-phenyl-1H-pyrazol-4-yl)-1-[3-(trifluoromethyl)phenyl]pyridazin-4(1H)-one] | 181 to 183 °C | – | – | – |
| CC(C)n1ncc(-c2nn(-c3cccc(C(F)(F)F)c3)ccc2=O)c1-c1ccccc1 [Example 78, 3-[1-(1-Methylethyl)-5-phenyl-1H-pyrazol-4-yl]-1-[3-(trifluoromethyl)phenyl]pyridazin-4(1H)-one] | 183 to 186 °C | – | – | – |
| O=c1ccn(-c2cccc(C(F)(F)F)c2)nc1-c1conc1-c1ccccc1 [Example 79, 3-(3-Phenylisoxazol-4-yl)-1-[3-(trifluoromethyl)phenyl]pyridazin-4(1H)-one] | 217 to 219 °C | – | – | – |
| COc1cn(-c2cccc(C(F)(F)F)c2)nc(-n2ccnc2-c2ccccc2)c1=O [Example 82, 5-Methoxy-3-(2-phenyl-1H-imidazol-1-yl)-1-[3-(trifluoromethyl)phenyl]pyridazin-4(1H)-one] | 167 to 170 °C | – | – | – |
| Cn1cnc(-c2ccccc2)c1-c1nn(-c2cccc(C(F)(F)F)c2)ccc1=O [Example 84, 3-(1-Methyl-4-phenyl-1H-imidazol-5-yl)-1-[3-(trifluoromethyl)phenyl]pyridazin-4(1H)-one] | 214 to 216 °C | – | – | – |
| O=c1ccn(-c2cccc(C(F)(F)F)c2)nc1-c1ccsc1-c1ccccc1 [Example 86, 3-(2-Phenylthiophen-3-yl)-1-[3-(trifluoromethyl)phenyl]pyridazin-4(1H)-one] | 167 to 168 °C | – | – | – |
| COc1cn(-c2cccc3c2OC(F)(F)O3)nc(-c2ccnn2-c2ccccc2)c1=O [Example 90, 1-(2,2-Difluoro-1,3-benzodioxol-4-yl)-5-methoxy-3-(1-phenyl-1H-pyrazol-5-yl)pyridazin-4(1H)-one] | 181 to 183 °C | – | – | – |
| COc1cn(-c2ccc(O)cc2F)nc(-c2ccnn2-c2ccccc2)c1=O [Example 91, 1-(2-Fluoro-4-hydroxyphenyl)-5-methoxy-3-(1-phenyl-1H-pyrazol-5-yl)pyridazin-4(1H)-one] | 223 to 224 °C | – | – | – |
| COc1cn(-c2cc3c(cc2F)OC(F)(F)O3)nc(-c2ccnn2-c2ccccc2)c1=O [Example 95, 5-Methoxy-3-(1-phenyl-1H-pyrazol-5-yl)-1-(2,2,6-trifluoro-1,3-benzodioxol-5-yl)pyridazin-4(1H)-one] | 200 to 202 °C | – | – | – |
| COc1cn(-c2cc3c(cc2F)OC(F)(F)C(F)(F)O3)nc(-c2ccnn2-c2ccccc2)c1=O [Example 96, 5-Methoxy-1-(2,2,3,3,7-pentafluoro-2,3-dihydro-1,4-benzodioxin-6-yl)-3-(1-phenyl-1H-pyrazol-5-yl)pyridazin-4(1H)-one] | 192 to 194 °C | – | – | – |
| O=c1ccn(-c2cccc3c2OC(F)(F)O3)nc1-c1ccnn1-c1ccccc1 [Example 142, 1-(2,2-Difluoro-1,3-benzodioxol-4-yl)-3-(1-phenyl-1H-pyrazol-5-yl)pyridazin-4(1H)-one] | 105 to 107 °C | – | – | – |
| O=c1ccn(-c2cccc(C(F)(F)F)c2)nc1-c1ccnn1Cc1ccccc1 [Example 153, 3-(1-Benzyl-1H-pyrazol-5-yl)-1-[3-(trifluoromethyl)phenyl]pyridazin-4(1H)-one] | 156 to 157 °C | – | – | – |
| COc1ccc(Cn2nccc2-c2nn(-c3cccc(C(F)(F)F)c3)ccc2=O)cc1 [Example 154, 3-[1-(4-Methoxybenzyl)-1H-pyrazol-5-yl]-1-[3-(trifluoromethyl)phenyl]pyridazin-4(1H)-one] | 159 to 161 °C | – | – | – |

Other lines, results leading:

| melting point | inhibition at 1 µM (Human PDE10A enzyme) | pIC50 (Human PDE10A enzyme) | inhibition at 0.1 µM (Human PDE10A enzyme; compound at 0.1 μM as noted in cell, read-out: Percent inhibition (at 0.1 μM)) | SMILES |
| --- | --- | --- | --- | --- |
| 124 to 125 °C | 97% | 6.70 to 8.00 | – | O=c1ccn(-c2ccccc2F)nc1-c1ccnn1-c1ccccc1 [Example 16, 1-(2-Fluorophenyl)-3-(1-phenyl-1H-pyrazol-5-yl)pyridazin-4(1H)-one] |
| 252 to 253 °C | 97% | 6.70 to 8.00 | – | O=c1ccn(-c2ccc(F)cc2)nc1-c1ccnn1-c1ccccc1 [Example 17, 1-(4-Fluorophenyl)-3-(1-phenyl-1H-pyrazol-5-yl)pyridazin-4(1H)-one] |
| 123 to 124 °C | 97% | 6.70 to 8.00 | – | O=c1ccn(-c2ccccc2OC(F)F)nc1-c1ccnn1-c1ccccc1 [Example 26, 1-[2-(Difluoromethoxy)phenyl]-3-(1-phenyl-1H-pyrazol-5-yl)pyridazin-4(1H)-one] |
| 204 to 205 °C | – | – | – | O=c1ccn(-c2cccc(C(F)(F)F)c2)nc1-n1ccnc1-c1ccccc1 [Example 81, 3-(2-Phenyl-1H-imidazol-1-yl)-1-[3-(trifluoromethyl)phenyl]pyridazin-4(1H)-one] |
| 159 to 163 °C | – | – | – | O=c1ccn(-c2cccc(C(F)(F)F)c2)nc1-c1ccoc1-c1ccccc1 [Example 85, 3-(2-Phenylfuran-3-yl)-1-[3-(trifluoromethyl)phenyl]pyridazin-4(1H)-one] |
| 195 to 197 °C | – | – | – | COc1cn(-c2ccncc2)nc(-c2ccnn2-c2ccccc2)c1=O [Example 87, 5-Methoxy-3-(1-phenyl-1H-pyrazol-5-yl)-1-pyridin-4-ylpyridazin-4(1H)-one] |
| 189 to 192 °C | – | – | – | COc1cn(-c2cccc3cccnc23)nc(-c2ccnn2-c2ccccc2)c1=O [Example 88, 5-Methoxy-3-(1-phenyl-1H-pyrazol-5-yl)-1-quinolin-8-ylpyridazin-4(1H)-one] |
| 200 to 202 °C | – | – | – | COc1cn(-c2ccc(-c3c(C)noc3C)cc2F)nc(-c2ccnn2-c2ccccc2)c1=O [Example 112, 1-[4-(3,5-Dimethylisoxazol-4-yl)-2-fluorophenyl]-5-methoxy-3-(1-phenyl-1H-pyrazol-5-yl)pyridazin-4(1H)-one] |
| 155 to 157 °C | – | – | – | O=c1ccn(-c2cccc(C(F)(F)F)c2)nc1-c1ccnn1CC1CC1 [Example 152, 3-[1-(Cyclopropylmethyl)-1H-pyrazol-5-yl]-1-[3-(trifluoromethyl)phenyl]pyridazin-4(1H)-one] |
| 210 to 212 °C | – | – | – | COc1cn(-c2cccnc2)nc(-c2ccnn2-c2ccccc2)c1=O [Example 173, 5-Methoxy-3-(1-phenyl-1H-pyrazol-5-yl)-1-pyridin-3-ylpyridazin-4(1H)-one] |
| 171 to 174 °C | – | – | – | COc1cn(-c2cc(N3CCCC3=O)ccc2F)nc(-c2ccnn2-c2ccccc2)c1=O [Example 182, 1-[2-Fluoro-5-(2-oxopyrrolidin-1-yl)phenyl]-5-methoxy-3-(1-phenyl-1H-pyrazol-5-yl)pyridazin-4(1H)-one] |
| 200 to 201 °C | – | – | – | COc1cn(-c2ccc(N3CC4(CC4)OC3=O)cc2F)nc(-c2ccnn2-c2ccccc2)c1=O [Example 191, 6-{3-Fluoro-4-[5-methoxy-4-oxo-3-(1-phenyl-1H-pyrazol-5-yl)pyridazin-1(4H)-yl]phenyl}-4-oxa-6-azaspiro[2.4]heptan-5-one] |
| 139 to 141 °C | – | – | – | COc1cc(=O)c(-c2ccnn2-c2ccccc2)nn1-c1cccc(C(F)(F)F)c1 [Example 193, 6-Methoxy-3-(1-phenyl-1H-pyrazol-5-yl)-1-[3-(trifluoromethyl)phenyl]pyridazin-4(1H)-one] |
